Assay results published in patent publication US9096624B2 (OSI Pharmaceuticals, LLC, priority 2009, dated 2015).
pIC50: −log10 of the molar value.

What was measured:
FAK [1] = target: T1, FAK (Homo sapiens, UniProt Q05397); assay: Cell-based capture ELISA for inhibition of FAK autophosphorylation [pY397] in MiaPaCa2 cells
Description: Cell-Based Assays for Inhibition of FAK Autophosphorylation: MiaPaCa2 and U87MG
ELISA kit from Invitrogen (KHO0441).
Reagents Provided in Biosource FAK [pY397]
The cells were then suspended in cell assay medium.

FAK [2] = target: T1, FAK; assay: biochemical
[3] = MIA-PaCa2 cells on fibronectin, 2 h, no plasma, read-out: Mean FAK Cell Mechanistic IC50 MIA-PaCa2
[4] = MIA-PaCa2 cells, + 50% human plasma, read-out: Mean FAK Cell Mechanistic IC50 + 50% hP MIA-PaCa2
[5] = MIA-PaCa2 cells, + 50% mouse plasma (Table 2), read-out: Mean FAK Cell Mechanistic IC50 + 50% mP MIA-PaCa2
[6] = MIA-PaCa2 cells, + 50% mouse plasma (Table 3), read-out: Mean FAK Cell Mechanistic IC50 + 50% mP MIA-PaCa2

T1 sequence (Q05397 whole entry): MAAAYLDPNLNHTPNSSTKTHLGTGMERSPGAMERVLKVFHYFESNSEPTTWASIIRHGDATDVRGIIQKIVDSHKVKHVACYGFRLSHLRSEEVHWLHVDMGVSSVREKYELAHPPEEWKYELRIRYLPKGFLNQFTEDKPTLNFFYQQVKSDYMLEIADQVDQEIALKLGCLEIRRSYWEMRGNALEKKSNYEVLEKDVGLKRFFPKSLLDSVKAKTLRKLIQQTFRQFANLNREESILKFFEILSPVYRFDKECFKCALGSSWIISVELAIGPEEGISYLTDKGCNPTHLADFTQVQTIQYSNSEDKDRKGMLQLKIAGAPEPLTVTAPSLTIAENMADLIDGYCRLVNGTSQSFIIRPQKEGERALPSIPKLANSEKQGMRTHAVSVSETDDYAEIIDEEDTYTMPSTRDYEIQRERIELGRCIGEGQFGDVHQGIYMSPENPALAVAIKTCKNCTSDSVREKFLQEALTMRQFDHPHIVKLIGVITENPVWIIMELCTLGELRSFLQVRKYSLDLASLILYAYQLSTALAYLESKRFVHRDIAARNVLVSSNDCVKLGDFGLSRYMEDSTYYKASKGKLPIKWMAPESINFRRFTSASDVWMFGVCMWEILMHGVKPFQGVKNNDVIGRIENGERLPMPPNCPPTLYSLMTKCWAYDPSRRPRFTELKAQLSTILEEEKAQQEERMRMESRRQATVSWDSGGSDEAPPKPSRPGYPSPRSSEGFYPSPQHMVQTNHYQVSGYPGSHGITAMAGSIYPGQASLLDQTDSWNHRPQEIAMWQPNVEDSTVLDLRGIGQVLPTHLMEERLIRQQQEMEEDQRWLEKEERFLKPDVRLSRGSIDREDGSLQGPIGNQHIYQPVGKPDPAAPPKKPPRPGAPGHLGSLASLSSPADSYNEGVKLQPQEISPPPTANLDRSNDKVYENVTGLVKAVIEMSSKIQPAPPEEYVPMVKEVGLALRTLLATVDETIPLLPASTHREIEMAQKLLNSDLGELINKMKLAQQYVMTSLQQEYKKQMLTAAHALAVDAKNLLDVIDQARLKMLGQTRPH

Q: How did the pIC50 (FAK [1]; [3]) turn out when `CCOP(C)(=O)Cc1ccc(Nc2ncc(C(F)(F)F)c(Nc3ccc(N4CCCC4)c4c3C(=O)N(C)C4)n2)cc1` (centres unmarked) [Example 80, Ethyl methyl(4-{[4-{[2-methyl-3-oxo-7-(pyrrolidin-1-yl)-2,3-dihydro-1H-isoindol-4-yl]amino}-5-(trifluoromethyl)pyrimidin-2-yl]amino}benzyl)phosphinate] was run?
A: > 6.00

Q: And the pIC50 (FAK [1]; [4])?
A: > 6.00

Q: What about the pIC50 (FAK [2]) of the same compound?
A: > 6.00

Q: With `CCOP(C)(=O)Cc1ccc(Nc2ncc(C(F)(F)F)c(Nc3ccc(N4CCC(O)C4)c4c3C(=O)N(C)C4)n2)cc1` (centres unmarked) [Example 81, Ethyl (4-{[4-{[7-(3-hydroxypyrrolidin-1-yl)-2-methyl-3-oxo-2,3-dihydro-1H-isoindol-4-yl]amino}-5-(trifluoromethyl)pyrimidin-2-yl]amino}benzyl)methylphosphinate] as the compound, how does the pIC50 (FAK [1]; [3]) read?
A: > 6.00

Q: What about the pIC50 (FAK [1]; [4]) of the same compound?
A: > 6.00

Q: What about the pIC50 (FAK [2]) of the same compound?
A: > 6.00

Q: Which results are given for `CCOP(C)(=O)Cc1ccc(Nc2ncc(C(F)(F)F)c(Nc3ccc(N4CCCCC4)c4c3C(=O)N(C)C4)n2)cc1` (centres unmarked) [Example 82, Ethyl methyl(4-{[4-{[2-methyl-3-oxo-7-(piperidin-1-yl)-2,3-dihydro-1H-isoindol-4-yl]amino}-5-(trifluoromethyl)pyrimidin-2-yl]amino}benzyl)phosphinate]?
A: pIC50 (FAK [1]; [3]): > 6.00; pIC50 (FAK [1]; [4]): > 6.00; pIC50 (FAK [2]): > 6.00

Q: How did the pIC50 (FAK [1]; [5]) turn out when `CCOP(=O)(Cc1ccc(Nc2ncc(C(F)(F)F)c(Nc3ccc(N4CCCC4)c4c3C(=O)N(C)C4)n2)c(OC)c1)OCC` [Example 83, Diethyl (3-methoxy-4-{[4-{[2-methyl-3-oxo-7-(pyrrolidin-1-yl)-2,3-dihydro-1H-isoindol-4-yl]amino}-5-(trifluoromethyl)pyrimidin-2-yl]amino}benzyl)phosphonate] was run?
A: > 6.00

Q: What about the pIC50 (FAK [2]) of the same compound?
A: > 6.00

Q: `CCOP(=O)(Cc1ccc(Nc2ncc(C(F)(F)F)c(Nc3ccc(N4CC[C@H](O)C4)c4c3C(=O)N(C)C4)n2)c(OC)c1)OCC` [Example 84, Diethyl (4-{[4-({7-[(3S)-3-hydroxypyrrolidin-1-yl]-2-methyl-3-oxo-2,3-dihydro-1H-isoindol-4-yl}amino)-5-(trifluoromethyl)pyrimidin-2-yl]amino}-3-methoxybenzyl)phosphonate] was tested. Which pIC50 (FAK [1]; [5]) did it give?
A: > 6.00

Q: And the pIC50 (FAK [2])?
A: > 6.00

Q: `CCOP(=O)(Cc1ccc(Nc2ncc(C(F)(F)F)c(Nc3ccc(N4CCC(O)CC4)c4c3C(=O)N(C)C4)n2)c(OC)c1)OCC` [Example 85, Diethyl (4-{[4-{[7-(4-hydroxypiperidin-1-yl)-2-methyl-3-oxo-2,3-dihydro-1H-isoindol-4-yl]amino}-5-(trifluoromethyl)pyrimidin-2-yl]amino}-3-methoxybenzyl)phosphonate] was tested. Which pIC50 (FAK [1]; [5]) did it give?
A: > 6.00

Q: What about the pIC50 (FAK [2]) of the same compound?
A: > 6.00

Q: With `CCOP(=O)(Cc1ccc(Nc2ncc(C(F)(F)F)c(Nc3ccc(N4CCCC(O)C4)c4c3C(=O)N(C)C4)n2)c(OC)c1)OCC` (centres unmarked) [Example 86, Diethyl (4-{[4-{[7-(3-hydroxypiperidin-1-yl)-2-methyl-3-oxo-2,3-dihydro-1H-isoindol-4-yl]amino}-5-(trifluoromethyl)pyrimidin-2-yl]amino}-3-methoxybenzyl)phosphonate] as the compound, how does the pIC50 (FAK [1]; [5]) read?
A: > 6.00

Q: What about the pIC50 (FAK [2]) of the same compound?
A: > 6.00

Q: Which results are given for `CCOC(=O)[C@H]1CC[C@@H](c2ccc(Nc3nc(Nc4ccc(CP(=O)(OCC)OCC)cc4OC)ncc3C(F)(F)F)c3c2CN(C)C3=O)CC1` [Example 87, Ethyl cis-4-(7-{[2-({4-[(diethoxyphosphoryl)methyl]-2-methoxyphenyl}amino)-5-(trifluoromethyl)pyrimidin-4-yl]amino}-2-methyl-1-oxo-2,3-dihydro-1H-isoindol-4-yl)cyclohexanecarboxylate]?
A: pIC50 (FAK [1]; [5]): > 6.00; pIC50 (FAK [2]): > 6.00

Q: How did the pIC50 (FAK [1]; [5]) turn out when `CCOC(=O)[C@H]1CC[C@H](c2ccc(Nc3nc(Nc4ccc(CP(=O)(OCC)OCC)cc4OC)ncc3C(F)(F)F)c3c2CN(C)C3=O)CC1` [Example 88, Ethyl trans-4-(7-{[2-({4-[(diethoxyphosphoryl)methyl]-2-methoxyphenyl}amino)-5-(trifluoromethyl)pyrimidin-4-yl]amino}-2-methyl-1-oxo-2,3-dihydro-1H-isoindol-4-yl)cyclohexanecarboxylate] was run?
A: > 6.00

Q: What about the pIC50 (FAK [2]) of the same compound?
A: > 6.00

Q: `CCOP(=O)(Cc1ccc(Nc2ncc(C(F)(F)F)c(Nc3ccc([C@H]4CC[C@H](C(=O)O)CC4)c4c3C(=O)N(C)C4)n2)c(OC)c1)OCC` [Example 90, Trans-4-(7-{[2-({4-[(diethoxyphosphoryl)methyl]-2-methoxyphenyl}amino)-5-(trifluoromethyl)pyrimidin-4-yl]amino}-2-methyl-1-oxo-2,3-dihydro-1H-isoindol-4-yl)cyclohexanecarboxylic acid] was tested. Which pIC50 (FAK [1]; [5]) did it give?
A: > 6.00

Q: And the pIC50 (FAK [2])?
A: > 6.00

Q: `CCOP(=O)(Cc1ccc(Nc2ncc(C(F)(F)F)c(Nc3ccc([C@H]4CC[C@@H](O)CC4)c4c3C(=O)N(C)C4)n2)c(OC)c1)OCC` [Example 94, Diethyl (4-{[4-{[7-(cis-4-hydroxycyclohexyl)-2-methyl-3-oxo-2,3-dihydro-1H-isoindol-4-yl]amino}-5-(trifluoromethyl)pyrimidin-2-yl]amino}-3-methoxybenzyl)phosphonate] was tested. Which pIC50 (FAK [1]; [5]) did it give?
A: > 6.00

Q: What about the pIC50 (FAK [2]) of the same compound?
A: > 6.00

Q: Which results are given for `CCOP(=O)(Cc1ccc(Nc2ncc(C(F)(F)F)c(Nc3ccc([C@H]4CC[C@H](N5CCN(C)CC5)CC4)c4c3C(=O)N(C)C4)n2)c(OC)c1)OCC` [Example 96, Diethyl (3-methoxy-4-{[4-({2-methyl-7-[trans-4-(4-methylpiperazin-1-yl)cyclohexyl]-3-oxo-2,3-dihydro-1H-isoindol-4-yl}amino)-5-(trifluoromethyl)pyrimidin-2-yl]amino}benzyl)phosphonate]?
A: pIC50 (FAK [1]; [5]): > 6.00; pIC50 (FAK [2]): > 6.00

Q: Which results are given for `CCOP(=O)(Cc1ccc(Nc2ncc(C(F)(F)F)c(Nc3ccc(-c4cnn(C5CC(O)C5)c4)c4c3C(=O)N(C)C4)n2)c(OC)c1)OCC` (centres unmarked) [Example 100, Diethyl (4-{[4-({7-[1-(3-hydroxycyclobutyl)-1H-pyrazol-4-yl]-2-methyl-3-oxo-2,3-dihydro-1H-isoindol-4-yl}amino)-5-(trifluoromethyl)pyrimidin-2-yl]amino}-3-methoxybenzyl)phosphonate]?
A: pIC50 (FAK [1]; [6]): > 6.00; pIC50 (FAK [2]): > 6.00

Q: Which results are given for `CCOP(=O)(Cc1ccc(Nc2ncc(C(F)(F)F)c(Nc3ccc(-c4cnn(C[C@H](O)CO)c4)c4c3C(=O)N(C)C4)n2)cc1)OCC` [Example 101, Diethyl [4-({4-[(7-{1-[(2S)-2,3-dihydroxypropyl]-1H-pyrazol-4-yl}-2-methyl-3-oxo-2,3-dihydro-1H-isoindol-4-yl)amino]-5-(trifluoromethyl)pyrimidin-2-yl}amino)benzyl]phosphonate]?
A: pIC50 (FAK [1]; [6]): > 6.00; pIC50 (FAK [2]): > 6.00

Q: How did the pIC50 (FAK [1]; [6]) turn out when `CCOP(=O)(Cc1ccc(Nc2ncc(C(F)(F)F)c(Nc3ccc(F)cc3C(=O)NC)n2)c(OC)c1)OCC` [Example 102, Diethyl (4-{[4-{[4-fluoro-2-(methylcarbamoyl)phenyl]amino}-5-(trifluoromethyl)pyrimidin-2-yl]amino}-3-methoxybenzyl)phosphonate] was run?
A: > 6.00

Q: What about the pIC50 (FAK [2]) of the same compound?
A: > 6.00

Q: How did the pIC50 (FAK [1]; [6]) turn out when `CCOP(=O)(Cc1ccc(Nc2ncc(C(F)(F)F)c(Nc3cc(F)ccc3C(=O)NC)n2)c(OC)c1)OCC` [Example 103, Diethyl (4-{[4-{[5-fluoro-2-(methylcarbamoyl)phenyl]amino}-5-(trifluoromethyl)pyrimidin-2-yl]amino}-3-methoxybenzyl)phosphonate] was run?
A: > 6.00

Q: And the pIC50 (FAK [2])?
A: > 6.00

Q: How did the pIC50 (FAK [1]; [6]) turn out when `CCOP(=O)(Cc1ccc(Nc2ncc(C(F)(F)F)c(Nc3ccccc3C(=O)NC)n2)c(Cl)c1)OCC` [Example 104, Diethyl (3-chloro-4-{[4-{[2-(methylcarbamoyl)phenyl]amino}-5-(trifluoromethyl)pyrimidin-2-yl]amino}benzyl)phosphonate] was run?
A: > 6.00

Q: And the pIC50 (FAK [2])?
A: > 6.00

Q: How did the pIC50 (FAK [1]; [6]) turn out when `CCOP(=O)(Cc1ccc(Nc2ncc(C(F)(F)F)c(Nc3cccc4c3C(=O)N(C)C4=O)n2)c(OC)c1)OCC` [Example 105, Diethyl [3-methoxy-4-({4-[(2-methyl-1,3-dioxo-2,3-dihydro-1H-isoindol-4-yl)amino]-5-(trifluoromethyl)pyrimidin-2-yl}amino)benzyl]phosphonate] was run?
A: 5.00 to 6.00

Q: And the pIC50 (FAK [2])?
A: > 6.00

Q: How did the pIC50 (FAK [1]; [6]) turn out when `CCOP(=O)(Cc1ccc(Nc2ncc(C(F)(F)F)c(Nc3ccc(Br)cc3C(=O)NC)n2)c(OC)c1)OCC` [Example 107, Diethyl (4-{[4-{[4-bromo-2-(methylcarbamoyl)phenyl]amino}-5-(trifluoromethyl)pyrimidin-2-yl]amino}-3-methoxybenzyl)phosphonate] was run?
A: > 6.00

Q: And the pIC50 (FAK [2])?
A: > 6.00

Q: How did the pIC50 (FAK [1]; [6]) turn out when `CCOP(=O)(Cc1ccc(Nc2ncc(C(F)(F)F)c(Nc3ccc(CN4CCCC4)c4c3C(=O)N(C)C4)n2)cc1)OCC` [Example 109, Diethyl (4-{[4-{[2-methyl-3-oxo-7-(pyrrolidin-1-ylmethyl)-2,3-dihydro-1H-isoindol-4-yl]amino}-5-(trifluoromethyl)pyrimidin-2-yl]amino}benzyl)phosphonate] was run?
A: 5.00 to 6.00

Q: And the pIC50 (FAK [2])?
A: > 6.00

Q: What does the source list for `CCOP(=O)(Cc1ccc(Nc2ncc(C(F)(F)F)c(Nc3ccc(CN4CCCC4)c4c3C(=O)N(C)C4)n2)c(OC)c1)OCC` [Example 110, Diethyl (3-methoxy-4-{[4-{[2-methyl-3-oxo-7-(pyrrolidin-1-ylmethyl)-2,3-dihydro-1H-isoindol-4-yl]amino}-5-(trifluoromethyl)pyrimidin-2-yl]amino}benzyl)phosphonate]?
A: pIC50 (FAK [1]; [6]): > 6.00; pIC50 (FAK [2]): > 6.00

Q: What does the source list for `CNC(=O)c1ccccc1Nc1nc(Nc2ccc(CP(=O)(OCCO)OCCO)cc2OC)ncc1C(F)(F)F` [Example 113, Bis(2-hydroxyethyl)(3-methoxy-4-{[4-{[2-(methylcarbamoyl)phenyl]amino}-5-(trifluoromethyl)pyrimidin-2-yl]amino}benzyl)phosphonate]?
A: pIC50 (FAK [1]; [6]): > 6.00; pIC50 (FAK [2]): > 6.00
